We go through one sequence from US20250231189A1, “MEASURING FREQUENCY OF PATHOGEN-SPECIFIC T CELLS IN […] AS E[…] TCR-INDUCED CA(2+) SIGNALING” (Thomas Jefferson University, priority 2017, published 2025).

The test relates to cloned T cells (68A62). Kind of test: Ca2+ mobilization pattern in individual T cells of a T-cell monolayer (Fluo-4 fluorescence microscopy). As to conditions: for fraction of T cells with slower Ca2+ mobilization (pattern of inefficient T cells) / fraction of cells with rapid/strong and sustained pattern of Ca2+ flux: CTL clone 68A62, strong agonist peptide 10^-4 M IV9, FIG. 4. It counts as cell-based, human. The text has this: HIV- and Flu-specific human CD8+ T cell clones, termed 68A62 and CER43, were kindly provide by Bruce Walker and Antonio Lanzavecchia, correspondingly. These T cells recognize […] (IV9) and […] (GL9) peptides, respectively, both presented by HLA-A2 MHC class I. 115iX is a CD8+ T cell line developed from CTL D3 as a result of spontaneous mutation in its TCR β chain resulting in loss of specificity for its natural ligand (Anikeeva and Sykulev, unpublished). These were used as T cells with irrelevant specificity. After stimulation with a mixture of allogeneic PBMC and IL2 the cells are typically used in resting stage, 12-17 days after the stimulation as previously described.
10^6 cells in 1 ml of PBS were loaded with Fluo-4 (Life Technologies) at 2-4 μM for 30 min at 37° C. in the presence of 0.02% pluoronic acid F-127 and 4 mM Probenecid. The cells were washed free of unreacted reagents and incubated at 37° C. for additional 30 min. The cells were then re-suspended in the assay buffer (Dulbecco's PBS containing 1 mM CaCl2, 2 mM MgCl2, 5 mM glucose, and 0.025% BSA) and used for Ca2+ flux analysis.
Glass bottom of 96 well MatTec plates was covered with poly-L-Lysine (Sigma, mol wt>300,000) at 0.1 mg/ml for 1 hr at room temperature. After washing with DPBS and add water, TS2/4 non-blocking mAb specific for LFA-1 were added to the plate at concentration 10 μg/ml overnight & 4° C. The wells were washed with DPBS, and 3×10^5 Fluo-4-labeled T cells in 100 μl of the assay buffer were added to each well. The plates were centrifuged for 200 g for one minute and were incubated for 30 min at room temperature prior to the imaging. Suspended cells were removed by gentle washing with assay buffer. The quality of T cell monolayer was assessed using bright field microscopy.
To identify responding T cells we imaged T-cell monolayers before (background measurement) and after (response) addition of the stimulatory signal such as agonist peptide. The images of T-cell monolayers were taken at various exposure times using 10× or 20× objectives. Instead of averaging the entire set of stimulatory signal against an agonist peptide, we identified sets of cells, having different response rates and then averaged these, now separated sets of cells. This is in direct contrast to the general averaging strategy provided in PCT/US2016/039313. In some experiments Ca2+ response was also initiated by ionomycin at 10 μg/ml to optimize exposure time (data not shown). The average intensity of images prior and after the T-cell stimulation at various time points and the numbers of individual responding cells per imaging field were determined by MetaMorph software.
Glass bottom of 96-well plates was covered with poly-L-Lysine to capture TS2/4 antibody recognizing LFA-1 adhesion receptor without blocking LFA-1 functional activity. Cloned CD8 T cells with known specificity or polyclonal CD8 T cells were labeled with Ca2+ fluorophore Fluor-4 and added to the wells. The quality of the T-cell monolayers was evident from analysis of bright field images of the immobilized T cells on the glass bottom of the plate. This method allows T cells to form a continuous monolayer allowing the T cells to contact each other, which is necessary for presentation and recognition of pMHC on one T cell by another T cell.
The immobilized cells, after they are provided with stimulation of a peptide, can be imaged. Accordingly, we can take a first image, to identify the background image of each individual cell, before and after the stimulation. Accordingly, we can look at the calcium concentration of each individual cell across time. By looking at each cell, we can then determine and add them to one of three boxes for responding cells, and then a fourth type of cell that is either non-responsive or there is calcium flux that happens with or without stimulation-this typically results in a sharp peak of intensity that quickly diminishes.
A general note: Calcium assays in cells follow changes in intracellular calcium, usually with a dye or a luminescent sensor.

Where [1] appears, read: listed as strong agonist ligand.

Entries after “also recorded” stand apart in the source; their conditions may differ.

Consider “ILKEPVHGV [IV9, peptide from HIV reverse transcriptase, presented by HLA-A2, recognized by CTL clone 68A62]”, for which the “fraction of T cells with slower Ca2+ mobilization (pattern of inefficient T cells)” value turned out to be 20%; the “fraction of cells with rapid/strong and sustained pattern of Ca2+ flux” value is “about 90%”. In addition, the “pattern of Ca2+ response of majority of T cells” value (shortened to “pattern … of majority of T cells”) (CD8 CTL 68A62, 10^-4 M IV9 peptide, FIG. 4) was “rapid and sustaine”. For the same sequence, under setting [1], the “fraction of T cells with slower Ca2+ mobilization (pattern of inefficient T cells)” value is “less than 20%”; the “fraction of cells with rapid/strong and sustained pattern of Ca2+ flux” value is listed as “More than 80%”. In addition, the “pattern … of majority of T cells” value (CTL clone 68A62, suboptimal (much lower) concentration of the strong agonist peptide, FIG. 6) is “rapid and oscillating pattern of Ca2+ mobilization; also recorded: quick, but oscillating”. Besides, the “pattern … of majority of T cells” value (CTL clone 68A62, suboptimal (much lower) concentration of the strong agonist peptide, FIG. 6, listed as strong agonist pMHC ligand) is “slow oscillating kinetics of Ca2+ mobilization”.
